{"source": "patent US20240376123A1", "about": "“KRAS G12D INHIBITORS AND USES THEREOF” (SUZHOU ZANRONG PHARMA LIMITED, priority 2021, published 2024)", "key": {"[1]": {"tested_on": "p-ERK in PNAC-1/HPAC cell", "experiment": "Phospho-ERK 1/2 assay (Table 1)", "format": "cell-based", "conditions": "Homo sapiens; PNAC-1/HPAC cell, 3 hours compound incubation; read-out: p-ERK IC50", "method_in_brief": "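Pancreatic cancer cells (PNAC-1/HPAC) treated with compound 3 hours at 37° C, 0.5% DMSO final, then fixed and methanol-permeabilized. In-cell western: rabbit anti-pERK with mouse anti-GAPDH overnight at 4° C, IR-dye secondaries, imaged at 700 and 800 nm.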"}, "Panc-1 p-ERK": {"tested_on": "Panc-1 p-ERK", "experiment": "Phospho-ERK 1/2 assay, Panc-1 (Table 2)", "format": "cell-based", "conditions": "Homo sapiens; Panc-1 cells", "experimental": "(§1) Allow PNAC-1/HPAC cell growth in a T75 flask in DMEM and 10% 1 fetal calf serum (FCS; Gibco), using standard tissue culture procedures until ˜80% confluency is achieved. Day 1, seed 6000 cells/well in 384 well plate and incubate at 37° C., 5% CO2. Add diluted compound by Echo 550, final DMSO is 0.5%, incubate cells at 37° C., 5% CO2 for 3 hours. Then, remove medium and fix cells with 3.7% formaldehyde in PBS (PFA) by Apricot. Wash with PBS once. Permeabilize cells with cold 100% methanol and repeat wash once with PBS once. Add Li-Cor blocking buffer to each well and incubate 1.5 hours at RT. Remove blocking buffer and add primary antibody mixture (rabbit anti pERK, mouse anti GAPDH). Incubate at 4° C. overnight. Day 2, wash with PBST (Tween-20 in PBS) with total 3 times and then add secondary antibody mixture (goat anti rabbit 800CW (1:800 dilution in the combined solution) and goat anti mouse 680RD (1:800 dilution in the combined solution)), incubate for 60 minutes at RT away from light. Repeat washing with PBST 3 times. After final wash, centrifuge plate up-side-down at 1000 rpm to remove wash solution completely from wells. Before plate scanning, clean the bottom plate surface and the Odyssey* Imager scanning bed (if applicable) with moist, lint-free tissue to avoid any obstructions during scanning. Scan plate with detection in both 700 and 800 nm channels.\n(§2) Table 2 describes the p-ERK IC50 values and selectivity over WT-KRAS cell line MKN-1 of the exemplary compounds of the present disclosure and reference compound MRTX-1133."}, "WT-KRAS cell line MKN-1": {"tested_on": "WT-KRAS cell line MKN-1", "experiment": "Phospho-ERK 1/2 assay, WT-KRAS cell line MKN-1 (Table 2)", "format": "cell-based", "experimental": "as §1, §2"}, "[2]": {"tested_on": "HPAC (ATCC CRL-2119) cells", "experiment": "KRAS G12D 3D CellTiter-Glo proliferation assay, HPAC", "format": "cell-based", "conditions": "Homo sapiens, 168 h, 3D proliferation, 7 days, CellTiter-Glo 3D", "experimental": "(§3) HPAC (ATCC CRL-2119) and AsPC-1 (ATCC CRL-1682) cells were purchased from ATCC, and each cell was cultured in medium supplemented with 10% fetal bovine serum (FBS), according to the protocol recommended by the manufacture. Serially diluted compound was added to 384-well Ultra-Low Attachment Surface round bottom plate (Corning). 400 cells/well were seeded in plate and incubated at 37° C., 5% CO2 for 7 days. Cell viability was measured using a CellTiter-Glo® 3D Cell Viability Assay kit (Promega) according to the manufacturer's protocol.\n(§4) The 2D and 3D proliferation data of the exemplary compounds of the present disclosure in different cell lines are shown in Table 3."}, "[3]": {"tested_on": "AsPC-1 (ATCC CRL-1682) cells", "experiment": "KRAS G12D 3D CellTiter-Glo proliferation assay, AsPC-1", "format": "cell-based", "conditions": "Homo sapiens, ASPC1, 168 h; 3D proliferation, 7 days, CellTiter-Glo 3D", "experimental": "as §3, §4"}, "[4]": {"tested_on": "AsPC-1 (ATCC CRL-1682) cells", "experiment": "KRAS G12D 2D CellTiter-Glo proliferation assay, AsPC-1", "format": "cell-based", "conditions": "Homo sapiens, ASPC1, 2D proliferation, 72 hours", "experimental": "(§5) AsPC-1 (ATCC CRL-1682) and LS513 (ATCC CRL-2134) cells were purchased from ATCC, GP2D (Cobioer CBP60010) cells was purchased from Cobioer biosciences CO., LTD, and each cell was cultured in medium supplemented with 10% fetal bovine serum (FBS), according to the protocol recommended by the manufacture. Cells were seeded 800 cells/well in 384-well plates (Corning) and incubated at 37° C., 5% CO2 for 18 hours. Serially diluted compound was added to the cells, and plates were incubated at 37° C., 5% CO2 for 72 hours. Cell viability was measured using a CellTiter-Glo® Luminescent Cell Viability Assay kit (Promega) according to the manufacturer's protocol.\nas §4"}, "[5]": {"tested_on": "GP2D (Cobioer CBP60010) cells", "experiment": "KRAS G12D 2D CellTiter-Glo proliferation assay, GP2D", "format": "cell-based", "conditions": "2D proliferation, 72 hours", "experimental": "as §5, §4"}, "[6]": {"tested_on": "LS513 (ATCC CRL-2134) cells", "experiment": "KRAS G12D 2D CellTiter-Glo proliferation assay, LS513", "format": "cell-based", "conditions": "Homo sapiens, LS-513, 2D proliferation, 72 hours", "experimental": "as §5, §4"}, "[7]": {"experiment": "In vivo oral bioavailability assay", "conditions": "Balb/c mice female, IV bolus 1 mg/kg and oral gavage 30 mg/kg, single dose", "experimental": "Single dose following IV bolus (1 mg/kg, 0.2 mg/mL in 1% DMSO, 99% SBE-β-CD (10% w/v) in water) and oral gavage (30 mg/kg, 3 mg/mL in 1% MC in DI water) administration of test compound in Balb/c Mice female. The blood samples were collected at 2 min, 5 min, 10 min, 30 min, 1 hr, 2 hr, 4 hr, 8 hr and 24 hr (additional 32 hr and 48 hr for MRTX1133) after IV bolus, at 15 min, 30 min, 1 hr, 1.5 hr, 2 hr, 3 hr, 4 hr, 8 hr and 24 hr (additional 32 hr and 48 hr for MRTX1133) after PO administration. The plasma concentrations of compounds were determined with UPLC-MS/MS."}}}
{"smiles": "C#Cc1cccc2cccc(-c3nc4c5c(nc(OC[C@@]67CCCN6C[C@H](F)C7)nc5c3F)N3C[C@H]5CC[C@H](N5)[C@H]3CO4)c12", "note": "[Compound 25, (5aS,6S,9R)-2-(8-ethynylnaphthalen-1-yl)-1-fluoro-12-(((2R,7aS)-2-fluorotetrahydro-1H-pyrrolizin-7a(5H)-yl)methoxy)-5a,6,7,8,9,10-hexahydro-5H-4-oxa-3,10a,11,13,14-pentaaza-6,9-methanonaphtho[1,8-ab]heptalene]", "values": [{"measurement": "IC50", "setting": "[1]", "result": 10, "unit": "nM"}, {"measurement": "IC50", "setting": "Panc-1 p-ERK", "result": 10, "unit": "nM"}, {"measurement": "IC50", "setting": "WT-KRAS cell line MKN-1; Homo sapiens, WT-KRAS cell line MKN-1, p-ERK", "result": 754, "unit": "nM"}, {"measurement": "Selectivity Fold", "setting": "WT-KRAS cell line MKN-1; selectivity over WT-KRAS cell line MKN-1 vs Panc-1 p-ERK", "result": 75, "unit": "Fold"}, {"measurement": "IC50", "setting": "[2]", "result": 76, "unit": "nM"}, {"measurement": "IC50", "setting": "[3]", "result": 54, "unit": "nM"}, {"measurement": "IC50", "setting": "[4]", "result": 516, "unit": "nM"}, {"measurement": "IC50", "setting": "[5]", "result": 23, "unit": "nM"}, {"measurement": "IC50", "setting": "[6]", "result": 80, "unit": "nM"}, {"measurement": "Bioavailability (%)", "setting": "[7]", "result": 39.2, "unit": "%"}, {"measurement": "Fa*Fg (%)", "setting": "[7]", "result": 56.6, "unit": "%"}]}
